Measurements from US20180110824A1, “Macrocyclic Modulators of the Ghrelin Receptor” (Ocera Therapeutics, Inc., priority 2016, published 2018).

Tests used:
[1] = tested on: morphine-delayed gastric emptying and gastrointestinal transit in rats; experiment: Opioid (morphine)-delayed gastric emptying and gastrointestinal transit in rats; assay type: in vivo, rat; settings: 3 mg/kg, s.c., rats, FIG. 16A
Description: Opioid analgesics, such as morphine, are well known to delay gastrointestinal transit which is an important side-effect for this class of drugs. The clinical term for this syndrome is opioid bowel dysfunction (OBD). Importantly, patients recovering from abdominal surgery experience post-operative ileus that is further exacerbated by concomitant opioid therapy for post-surgical pain.
• 1. Rats (male, Sprague-Dawley, 250-300 g) are implanted with jugular vein catheters to accommodate dosing of test articles. • 2. Overnight-fasted rats are administered morphine (3 mg/kg s.c.). • 3. […] Radioactivity (^99mTc) in each tissue isolate is measured as a means of measuring the transit of the meal.

[2] = tested on: gastric emptying in fasted rats; experiment: Gastric emptying in fasted rats (phenol red methylcellulose meal); assay type: in vivo, rat
Description: To examine the effects of compounds of the invention in a model for gastroparesis, compounds were evaluated for possible effects on gastric emptying in fasted rats.
GHRP-6 and test samples were dissolved in vehicle of 9% HPBCD/0.9% NaCl. Immediately following oral administration of methylcellulose (2%) containing phenol red (0.05%) (2 mL/rat), test substances or vehicle (9% HPBCD/0.9% NaCl) were each administered intravenously (i.v.) at a dosing volume of 5 mL/kg.
Male Wistar rats were provided by LASCO (A Charles River Licensee Corporation, Taiwan). Space allocation for 6 animals was 45×23×15 cm. Animals were housed in APEC® cages and maintained in a controlled temperature (22° C.-24° C.) and humidity (60% -80%) environment with 12 h light, 12 h dark cycles for at least one week in the laboratory prior to being used. Free access to standard lab chow for rats (Lab Diet, Rodent Diet, PMI Nutrition International, USA) and tap water was granted. All aspects of this work including housing, experimentation and disposal of animals were performed in general accordance with the Guide for the Care and Use of Laboratory Animals (National Academy Press, Washington, D.C., 1996).
Test substances were each administered intravenously to a group of 5 O/N-fasted Wistar derived male rats weighing 200±20 g immediately after methylcellulose (2%) containing phenol red (0.05%) was administered orally at 2 mL/animal. The animals were then sacrificed 15 minutes later. The stomach was immediately removed, homogenized in 0.1 N NaOH (5 mL) and centrifuged. Following protein precipitation by 20% trichloroacetic acid (0.5 mL)and re-alkalization of the supernatant with 0.1 N NaOH, total phenol red remaining in the stomach was determined by a colorimetric method at 560 nm. A 30 percent or more (≥30%) increase in gastric emptying, detected as the decrease in phenol red concentration in the stomach relative to the vehicle control group, is considered significant.
• 1. Overnight-fasted rats (male Wistar, ˜200 g, N=5/group) were given a meal of methylcellulose (2%) by intragastric gavage. The meal was labeled with phenol red (0.05%). • 2. […] Animals were sacrificed 15 minutes later; the stomach was immediately removed and homogenized in 0.1 N NaOH and centrifuged. • 4. Total phenol red remaining in the stomach was quantified by a colorimetric method at 560 nm. • 5. A >30% increase in gastric emptying, detected based on the phenol red concentration in comparison to the control group, is considered significant.

[3] = Pharmacokinetic analysis in rats (i.v., s.c., p.o.); assay type: in vivo; settings: male, Sprague-Dawley, plasma, iv, 2 mg/kg, rat
Description: • 1. Intravenous (i.v.): 2 mg/kg • 2. Subcutaneous (s.c): 2 mg/kg • 3. Oral (p.o.): 8 mg/kg
Whole blood samples were chilled and immediately processed by centrifugation to obtain plasma.
Plasma samples were stored frozen (−70° C.) until analysis.

[4] = target: T1, human growth hormone secretagogue receptor (hGHS-R1a) (Homo sapiens, UniProt Q92847); experiment: Competitive radioligand binding assay (ghrelin receptor), [125I]-ghrelin displacement on GHS-R/HEK 293 membranes; settings: Ki (nM)
T1 construct: purchased PerkinElmer BioSignal #RBHGHSM; host or cells: HEK-293, stably transfected

[5] = target: T2, human ghrelin receptor (hGHS-R1a) (Homo sapiens, UniProt Q92847); experiment: Aequorin functional assay (ghrelin receptor), CHO-K1 cells co-expressing Gα16 and aequorin; assay type: cell-based; settings: EC50 (nM), Table 4; functional (agonist) activity; TFA salts unless otherwise noted
T2 construct: host or cells: CHO-K1 co-expressing Gα16 and mitochondrially targeted aequorin
Description: This cell line is typically constructed by transfection of the human ghrelin receptor into CHO-K1 cells co-expressing Gα16 and the mitochondrially targeted Aequorin (Ref #ES-WT-A5). • 1. […] Assay buffer: DMEM (Dulbecco's Modified Eagles Medium) containing 0.1% BSA (bovine serum albumin; pH 7.0). • 3. Coelenterazine (Molecular Probes, Leiden, The Netherlands). • Final test concentrations (N=8) for compounds of the invention: 10, 1, 0.3, 0.1, 0.03, 0.01, 0.003, 0.001 μM.
Stock solutions of compounds (10 mM in 100% DMSO) were provided frozen on dry ice and stored at −20° C. prior to use. […] Assay plates were then prepared by appropriate dilution in DMEM medium containing 0.1% BSA. Under these conditions, the maximal final DMSO concentration in the assay was <0.6%.
AequoScreen™ cells were collected from culture plates with Ca^2+ and Mg^2+-free phosphate buffered saline (PBS) supplemented with 5 mM EDTA, pelleted for 2 min at 1000×g re-suspended in DMEM—Ham's F12 containing 0.1% BSA at a density of 5×10^6 cells/mL, and incubated O/N at rt in the presence of 5 μM coelenterazine. After loading, cells were diluted with assay buffer to a concentration of 5×10^5 cells/mL.
For agonist testing, 50 μL of the cell suspension was mixed with 50 μL of the appropriate concentration of test compound or ghrelin (reference agonist) in 96-well plates (duplicate samples). Ghrelin (reference agonist) was tested at several concentrations concurrently with the test compounds in order to validate the experiment. The emission of light resulting from receptor activation in response to ghrelin or test compounds was recorded using the Hamamatsu FDSS 6000 reader (Hamamatsu Photonics K.K., Japan).
Results were expressed as Relative Light Units (RLU). […] EC50, Hill slope and % Emax values are reported.
• 1. Assay performed on CHO-K1 cells expressing the transfected, cloned human ghrelin receptor (hGHS-R1a) and Gα16. • 2. Suspended cells incubated O/N with coelenterazine. • 3. Stimulation of hGHS-R1a activates Gα16, causing […] Ca2+ release which ultimately leads to the oxidation of coelenterazine and the emission of a quantitative luminescent signal. • 4. Ghrelin was used as the positive control. • 5.

T1 sequence (Q92847 whole entry): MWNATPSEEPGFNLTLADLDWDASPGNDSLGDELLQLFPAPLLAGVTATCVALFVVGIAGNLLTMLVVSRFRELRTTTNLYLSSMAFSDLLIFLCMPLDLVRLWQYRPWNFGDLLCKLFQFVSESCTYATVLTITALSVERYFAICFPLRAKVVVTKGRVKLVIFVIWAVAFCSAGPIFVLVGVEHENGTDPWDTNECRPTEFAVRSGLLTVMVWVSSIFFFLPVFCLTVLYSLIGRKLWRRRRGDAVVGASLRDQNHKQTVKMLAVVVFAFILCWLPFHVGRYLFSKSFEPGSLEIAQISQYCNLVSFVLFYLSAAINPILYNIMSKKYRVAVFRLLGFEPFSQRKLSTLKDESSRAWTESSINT
T2 sequence (Q92847 whole entry): as above

## CN1CC[C@]23c4c5ccc(O)c4O[C@H]2[C@@H](O)C=C[C@H]3[C@H]1C5 [Morphine, morphine, reference compound]
[1]
  gastric emptying and intestinal transit: significantly delayed gastric emptying and intestinal transit

## CCC(C)[C@@H]1NCCOc2ccccc2CCCNC(=O)[C@@H](Cc2ccc(Cl)cc2)NC(=O)[C@@H](C)N(C)C1=O (stereo partly shown) [compound 25]
[2]; 30 μg/kg, fasted rats
  gastric emptying: demonstrated gastric emptying
[2]; 100 μg/kg i.v., fasted rats
  increase in gastric emptying relative to the vehicle control group: 39%
[3]
  clearance: 67 mL/min/kg
[3]; read-out: Elimination (t1/2, min)
  half-life: 31 min
[4]; Binding activity at the human ghrelin receptor, [125I]-ghrelin displacement
  Ki: 0.1 to 10 nM
[4]; Table 4, TFA salts unless otherwise noted
  Ki: 0.1 to 10 nM
[5]
  EC50: 1 to 100 nM

## CCN(CC)CCNC(=O)c1cc(Cl)c(N)cc1OC [metoclopramide, Metoclopramide, reference compound]
[2]; 10 mg/kg i.v., fasted rats
  increase in gastric emptying relative to the vehicle control group: 41%
[2]; i.v., FIGS. 14A and 14B
  gastric emptying of a meal in naïve rat: demonstrated significant gastric emptying
